Data: patent US20230040279A1, “COMPOSITIONS HAVING PESTICIDAL UTILITY AND PROCESSES RELATED THERETO” (CORTEVA AGRISCIENCE LLC, priority 2019, published 2023)

Legend:
[1] = system: Green Peach Aphid (Myzus persicae, MYZUPE); assay: Green Peach Aphid (GPA) foliar spray bioassay on cabbage seedlings; format: in vivo; conditions: for Mean LC50 PPM: cabbage seedlings, live aphids counted three days after treatment, Abbott-corrected % control; for % (percent increase in the Mean LC50 required compared to F1): relative to F1
Protocol: (§1) F1, CE1, CE2, CE3, and CE4 (2 mg each) were each dissolved in 2 mL of acetone/methanol (1:1) solvent, forming stock solutions of 1000 ppm for each test molecule. The stock solutions were diluted 5× with 0.025% Tween® 20 in water to obtain test solutions at 200 ppm for each test molecule. Subsequent 4× dilutions, in water containing 0.025% Tween® 20 and 10% acetone/methanol (1:1), were used to generate the desired concentrations for dose responses. A minimum of 5 concentrations of each test molecule were used for each assay.
Test solutions of Formula One and the Comparative Examples, prepared as described above, were tested against GPA using the following procedure.
Cabbage seedlings grown in 3-inch pots, with 2-3 small (3-5 cm) true leaves, were used as test substrate. The seedlings were infested with 20-50 GPA (wingless adult and nymph stages) one day prior to chemical application. Four pots with individual seedlings were used for each treatment. A hand—held aspirator—type sprayer was used for spraying a solution to both sides of […] leaves until runoff. Reference plants (solvent check) were sprayed with the diluent only (0.025% Tween® 20 and 10% acetone/methanol (1:1) in water). Treated plants were held in a holding room for three days at approximately 25° C. and ambient relative humidity (RH) prior to grading. Evaluation was conducted by counting the number of live aphids per plant under a microscope three days after treatment. Percent control was measured using Abbott's correction formula (W. S. Abbott, “A Method of Computing the Effectiveness of an Insecticide” J. Econ. Entomol. 18 (1925), pp.265-267) as follows:
(§2) Corrected % Control=100*(X−Y)/X
where X=No. of live aphids on solvent check plants and Y=No. of live aphids on treated plants. Bioassay 2: Sweetpotato Whitefly (Bemisia tabaci, BEMITA) (“SPW”).

[2] = system: Sweetpotato Whitefly (Bemisia tabaci, BEMITA); assay: Sweetpotato Whitefly (SPW) foliar spray bioassay on cotton seedlings; format: in vivo; conditions: for Mean LC50 PPM: cotton seedlings sprayed at crawler emergence, 2-3 instar nymphs counted 7-9 days after treatment, Abbott-corrected % control; for % (percent increase in the Mean LC50 required compared to F1): relative to F1
Protocol: as §1
Test solutions of Formula One and the Comparative Examples, prepared as described above, were tested against SPW using the following procedure.
Cotton seedlings grown in 3-inch pots, pruned so that only one true leaf remained, were used as test substrate. Adult B. tabaci were allowed to colonize these plants and lay eggs for 24 hours after which all adults were removed from the plants using compressed air. Plants were monitored for egg development and, when crawler emergence was underway (>25% emergence based on visual examination using a microscope), the plants were sprayed using the test solutions and methods described above for green peach aphids (GPA). Treated plants were held in a holding room at approximately 25° C. and ambient relative humidity (RH) prior to grading. Evaluation was conducted by counting the number of developed 2-3 instar nymphs per plant under a microscope 7-9 days after treatment. Percent control was measured using Abbott's correction formula (W. S. Abbott, “A Method of Computing the Effectiveness of an Insecticide” J. Econ. Entomol. 18 (1925), pp.265-267) as follows:
as §2
where X=No. of live nymphs on solvent check plants and Y=No. of live nymphs on treated plants.

SMILES: CC(C(=O)Nc1cn(-c2cccnc2)nc1Cl)S(C)(=O)=O (stereo not drawn) [Molecule F1, N-(3-chloro-1-(pyridin-3-yl)-1H-pyrazol-4-yl)-2-(methylsulfonyl)propanamide]
- Mean LC50 PPM [1]: 0.07 PPM
- Mean LC50 PPM [2]: 4.87 PPM

SMILES: CS(=O)(=O)CC(=O)Nc1cn(-c2cccnc2)nc1Cl [CE3, N-(3-chloro-1-(pyridin-3-yl)-1H-pyrazol-4-yl)-2-(methylsulfonyl)acetamide]
- Mean LC50 PPM [1]: 0.05 PPM
- % (percent increase in the Mean LC50 required compared to F1) [1]: −29%
- Mean LC50 PPM [2]: 25.35 PPM
- % (percent increase in the Mean LC50 required compared to F1) [2]: 421%

SMILES: CN(C(=O)CS(C)(=O)=O)c1cn(-c2cccnc2)nc1Cl [CE2, N-(3-chloro-1-(pyridin-3-yl)-1H-pyrazol-4-yl)-N-methyl-2-(methylsulfonyl)acetamide]
- Mean LC50 PPM [1]: 0.52 PPM
- % (percent increase in the Mean LC50 required compared to F1) [1]: 643%
- Mean LC50 PPM [2]: 21.01 PPM
- % (percent increase in the Mean LC50 required compared to F1) [2]: 331%

SMILES: CC(C(=O)N(C)c1cn(-c2cccnc2)nc1Cl)S(C)(=O)=O (stereo not drawn) [CE1, N-(3-chloro-1-(pyridin-3-yl)-1H-pyrazol-4-yl)-N-methyl-2-(methylsulfonyl)propanamide]
- Mean LC50 PPM [1]: 0.29 PPM
- % (percent increase in the Mean LC50 required compared to F1) [1]: 314%
- Mean LC50 PPM [2]: 5.61 PPM
- % (percent increase in the Mean LC50 required compared to F1) [2]: 15%

SMILES: CC(C)(C(=O)Nc1cn(-c2cccnc2)nc1Cl)S(C)(=O)=O [CE4, N-(3-chloro-1-(pyridin-3-yl)-1H-pyrazol-4-yl)-2-methyl-2-(methylsulfonyl)propanamide]
- Mean LC50 PPM [1]: 2.17 PPM
- % (percent increase in the Mean LC50 required compared to F1) [1]: 3000%
- Mean LC50 PPM [2]: 9.72 PPM
- % (percent increase in the Mean LC50 required compared to F1) [2]: 100%
